Test results published in PMC3563528, “Ultrashort Cationic Lipopeptides and Lipopeptoids Selectively Induce Cytokine Production in Macrophages” (PLoS ONE, 2013).
“And” between values parts separate entries of the source, which are not always exact repeats. Identical values can stand only once. Marks after values point to notes of the source that are not given here.

Legend:
[1] = test system: human macrophage-like THP-1 cells; test: TNF-α production by ELISA in TC supernatants; assay type: cell-based; settings: any concentration tested, at or below 100 µM, 24 h exposure
Procedure: (§1) ELISA results were obtained from two biological replicates with two technical replicates each and statistical analyses was performed using Student paired t-test. Error bars in the graphs represents standard error of the mean, and a p-value of less that 0.05 was considered to be statistically significant.
Supplementary file pone.0054280.s002.tiff: Figure S2 TNF-α production by human macrophage-like THP-1 cells following incubation with amphiphiles 1–21. TC supernatants were monitored for cytokine production via ELISA, and results are reported in pg/mL. All studies were performed in two independent biological replicates with two technical replicates each. (TIFF) Click here for additional data file.

[2] = test system: human macrophage-like THP-1 cells; test: IL-1β production by ELISA in TC supernatants; assay type: cell-based; settings: 24 h exposure
Procedure: Figure 3 IL-1β production. Human macrophage-like THP-1 cells were exposed to amphiphiles 4–11 and 14–21, for twenty-four hours. TC supernatants were monitored for IL-1β by ELISA, with results shown in pg/mL. Studies were performed in two independent biological replicates with two technical replicate each, with the data here presented as the mean plus sem. Inset: Expanded results for the negative control and amphiphiles 4–7 at 5 µM and 10 µM.
as §1

[3] = test system: human macrophage-like THP-1 cells; test: IL-8 production by ELISA in TC supernatants; assay type: cell-based; settings: 24 h exposure; for IL-8 induction (in words): concentrations tested up to 100 µM; for IL-8 production: mean ± sem
Procedure: (§2) Prior to testing, human monocytic THP-1 cells were differentiated to plastic-adherent macrophage-like THP-1 cells as previously described. The cells were rested for twenty-four hours, then exposed to the amphiphiles of interest for twenty-four hours. Cell free TC supernatants were monitored for the production of chemokines Groα and IL-8 by ELISA as previously described, [34]. The constitutive background level of chemokine Groα was 6.6±1.8 pg/ml, and that of IL-8 was 1.7±0.16 ng/ml. Encouragingly, the majority of compounds were strong inducers of both IL-8 and Groα and increased chemokine levels above background (Figure 2). […] The three amphiphiles with a LysLysLys peptide sequence and lipid tail at least sixteen carbons in length, 5–7, were especially strong inducers of IL-8, increasing the concentration to 5–8 ng/mL (p<0.05) above control at 10 µM of lipopeptide, and up to 13 ng/mL (p<0.01) above control at 50 µM (Figure 2). These amphiphiles compared favourably to LL-37 (1.3 ng/mL of IL-8 above control at 10 µM), despite their brief peptide sequence. […] All lipopeptides with lipid tails shorter than sixteen carbons were unable to induce either IL-8 or Groα at concentrations up to 100 µM (Figure 2, Figure S1).
as §1

[4] = test system: human macrophage-like THP-1 cells; test: Groα production by ELISA in TC supernatants; assay type: cell-based; settings: 24 h exposure; for Groα induction (in words): concentrations tested up to 100 µM
Procedure: as §2, §1

S.aureus ATCC 29213 = test system: S.aureus ATCC 29213; set-up: method as in earlier work; settings: data from previous studies converted into µM; cited from earlier work
MSSE 81388 CANWARD 2008 = test system: MSSE 81388 CANWARD 2008; set-up: method as in earlier work; settings: data from previous studies converted into µM; cited from earlier work
MRSA ATCC 33592 = test system: MRSA ATCC 33592; set-up: method as in earlier work; settings: data from previous studies converted into µM; cited from earlier work
[5] = test system: MRSE (CZ >32) CAN-ICU 61589; set-up: method as in earlier work; settings: data from previous studies converted into µM; cited from earlier work
Gram positive strains = settings: in vitro; cited from earlier work
Source text: We have shown that ultrashort lipopeptides and lipopeptoids are able to induce selective cytokine production in human macrophages, despite little structural similarity to any known host defence peptide or CAMP.

[6] = 50 µM amphiphile, two biological replicates with two technical replicates each
[7] = 50 µM amphiphile, mean ± sem, two biological replicates with two technical replicates each

| Substance | IL-8 induction (in words) [3] | Groα induction (in words) [4] | Antimicrobial activity (MIC) (S.aureus ATCC 29213) | Antimicrobial activity (MIC) (MSSE 81388 CANWARD 2008) [µM] | Antimicrobial activity (MIC) (MRSA ATCC 33592) [µM] | Antimicrobial activity (MIC) [5] [µM] | other results |
| --- | --- | --- | --- | --- | --- | --- | --- |
| C16OH-NHarNHarNHar-NH2 [compound 20] | moderate inducers | moderate inducers | – | – | – | – | TNF-α induction (in words) [1]: did not induce; IL-1β induction (in words) [2]: did not induce |
| C20-LysGlyLys-NH2 [compound 3] | failed to significantly increase IL-8 production | – | – | – | – | – | – |
| C20-LysLysLys-NH2 [compound 7] | – | – | 7.7 µM | 7.7 | 7.7 | 7.7 | Increase of IL-1β concentration ([2]; moving from 10 µM to 50 µM): over forty-fold |
| C20-HarHarHar-NH2 [compound 11] | – | – | – | – | – | – | IL-8 production [3, 6]: up to 10 ng/mL |
| LLGDFFRKSKEKIGKEFKRIVQRIKDFLRNLVPRTES-OH [LL-37, human cathelicidin LL-37, natural host defence peptide, positive control, reference compound] | – | – | – | – | – | – | IL-8 above control ([3]; 10 µM amphiphile, two biological replicates with two technical replicates each): 1.3 ng/mL; Groα production ([4]; 2.5 µM): 800 pg/mL |
| C20-NHarNHarNHar-NH2 [compound 21] | moderate inducer | strongest inducer | 6.9 µM | 6.9 | 14 | 6.9 | MIC (Gram positive strains): ≤ 16 µg/mL; IL-8 production ([3]; 50 and 100 µM amphiphile): 6 ± 0.8 ng/mL; Groα production [4, 7]: 996 ± 4 pg/mL and 1000 pg/mL; Groα production ([4]; 100 µM amphiphile): 200 pg/mL |
| C11-LysLysLys-NH2 [compound 4] | – | – | 561^a μM | 281 | >561 | 281 | – |
| C16OH-LysLysLys-NH2 [compound 6] | – | – | 128 µM | 128 | 128 | 128 | IL-8 production [3, 6]: 12.5 ± 0.5 ng/mL; Groα production [4, 7]: 670 pg/mL |
| C16OH-HarHarHar -NH2 [compound 10] | – | – | – | – | – | – | IL-8 production [3, 6]: up to 10 ng/mL |
| C16-NLysGlyNLys-NH2 [compound 13] | inactive | inactive | – | – | – | – | – |
| C11-NLysGlyNLys-NH2 [compound 12] | inactive | inactive | – | – | – | – | – |
| C16OH-LysGlyLys-NH2 [compound 2] | failed to significantly increase IL-8 production | – | – | – | – | – | – |
| C16OH-NLysNLysNLys-NH2 [compound 16] | moderate inducers | moderate inducers | – | – | – | – | TNF-α induction (in words) [1]: did not induce; IL-1β induction (in words) [2]: did not induce |
| C16-LysGlyLys-NH2 [compound 1] | – | – | – | – | – | – | IL-8 above control [3, 6]: 0.2 ng/mL |
| C16-LysLysLys-NH2 [compound 5] | – | – | 8.1 µM | <0.25 | 4.1 | <0.25 | IL-8 production [3, 6]: 7.7 ± 0.6 ng/mL |
